Measurements as given in publication PMC6279743, “A small molecule ApoE4-targeted therapeutic candidate that normalizes sirtuin 1 levels and improves cognition in an Alzheimer’s disease mouse model” (Scientific Reports, 2018).

Assays:
E4FAD mice [1] = experiment: Novel Object Recognition (NOR) in 56-day study; assay type: in vivo; details: total time with both objects, vs E4FAD Veh
Method: (§1) E4FAD mice were 10–12 mo and NTg mice 7–9 mo at the start of the study.
All mice underwent NOR testing the last week of dosing. Mice were acclimated to a 30 × 40 cm arena for 15 minutes 24 hrs before acquisition. Individual mice underwent acquisition by exposure to two identical objects for 10 min. and then were returned to the home cage overnight. For the probe, individual mice were returned to the arena wherein one of the objects had been changed. Mice were allowed to explore the objects for 10 minutes. Both the acquisition and probe were recorded on tripod-mounted video cameras. The number of discreet interactions with each object (nose within 1 cm of the object) and time spent with each object were scored by personnel blind to the treatment and genotype of the mice; scores were spot-checked by a second scorer. The discrimination index (DI) was calculated by subtracting time spent (or number of interactions) with the familiar object (TF) from time spent (or number of interactions) with the novel object (TN), and then dividing that value by the sum of those two values [DI = (TN − TF)/(TN + TF)][73].

[2] = test system: SirT1 levels in A172-E4 cells; experiment: Confirmation assay in A172-E4 cells, SirT1 AlphaLISA; assay type: cell-based, human; details: 50 μM A03 vs DMSO
Method: (§2) Jesus Campagna, Patricia Spilman, Barbara Jagodzinska, Dongsheng Bai, Asa Hatami, Chunni Zhu, Tina Bilousova, Michael Jun, Chris Jean Elias, Johnny Pham, Gregory Cole, Mary Jo LaDu, Michael E. Jung, Dale E. Bredesen, and […]
(§3) Confirmation assay in A172-E4 cells. Befo re transfection, A172 human glioblastoma cells were cultured in Dulbecco’s Modified Eagle Medium (DMEM) supplemented with 10% fetal bovine serum and 1% penicillin/streptomycin in a 37 °C incubator in an atmosphere of 5% CO2 in air. The day of transfection, the media was replaced with Opti-MEM reduced serum medium. Transient transfection with human ApoE4 and ApoE3 constructs in pcDNA3 mammalian expression vectors or empty vector (control) was performed in 96-well plates using a 1:1 mixture of two transfection reagents - Lipofectamine 2000 and siPORT amine - in Opti-MEM as previously described13. After 4 hr incubation with transfection reagents, medium was exchanged for fresh […]
(§4) Cells were incubated with the compound for 60 hrs, then cell culture medium (for sAPPα) and cells (lysates for SirT1) were harvested and levels of sAPPα and SirT1

[3] = test system: sAPPα levels in A172-E4 cells; experiment: Confirmation assay in A172-E4 cells, sAPPα AlphaLISA; assay type: cell-based, human; details: 50 μM A03 vs DMSO, cell culture medium
Method: as §2, §3, §4

E4FAD mice [4] = experiment: Toxicity observation and body weights in 56-day study; assay type: in vivo
Source text: as §1

SirT1 mRNA = test system: SirT1 mRNA; design: method as in PMID 26791201; details: original studies, A172-E4 cells; cited from earlier work
patients = details: cited from earlier work
[5] = Parallel Artificial Membrane Permeability Assay (PAMPA; IAM column); assay type: in vitro ADME
Method: We used L(+)tartaric acid to isolate the L-enantiomer salt and D(-) tartaric acid to isolate the D-enantiomer salt, followed by neutralization of the salt with NaOH and re-crystallization to obtain the enantiomers. Enantiomer abundance (Supplementary Fig. S4) was determined by HPLC using a Chiralpak IB column. Isopropanol (0.2% diethylamine)/hexanes was used for gradient elution with 5–50% isopropanol (0.2% diethylamine) for 11 min, a Chiralpak IB column, and with sample (1 μL, 1.25 mg/mL) injection, 220 nm wavelength detection, and a flow rate of 1 mL/min. […] The L-alanine analog co-elutes with enantiomer-1 while the D-alanine analog co-elutes with enantiomer-2. Analysis of the enantiomers and A03 in the Parallel Artificial Membrane Permeability Assay (PAMPA) was performed and is described in Supplementary Methods. […]
PAMPA. An IAM.PC.DD2 Regis Technologies analytical (10 cm x 4.6 mm) column wherein phospholipid is bonded on 10 μm, 300 Å, spherical aminopropyl silica and end capped with C10 and C3 amides was used to determine membrane permeability of A03, E1 and E2. An isocratic method was used with a mobile phase comprising acetonitrile:PBS (pH 5.6) equal to 35:65, an injection volume of 5 µL, and a flow rate of 1 mL/min. The parameters determined are Tr = retention time of compound; KIAM= (Tr-T0)/T0; T0= is the delay time of the column, determined by use of 100 µg/mL citric acid) and was T0= 1.24 min; and (KIAM/MW4)*10-(10). The molecular weight of all three compounds was 255.74 g/mol. […]
Supplementary Fig. S1. […] (a) Transient transfection with either
ApoE3 or E4 decreased SirT1 levels as compared to empty vector (Pc/DMSO), but the decrease was greater with […]

[6] = Pharmacokinetics after oral delivery in mice; assay type: in vivo; details: oral 10 mg/kg
Method: All in vivo experiments described were carried out in strict accordance with good animal practice according to NIH recommendations. All procedures for animal use were approved by the Animal Research Committee (ARC) at UCLA and under an approved ARC protocol. Pharmacokinetic (PK) analysis[68]–[70] consisted of oral delivery of compounds (10 mg/Kg) to individual mice followed by euthanasia at 1, 2, 4, 6, and 8 hours post-dose by ketamine/xylazine over-anesthesia, blood collection by cardiac puncture, and transcardial saline perfusion. Whole blood was centrifuged at 5000 rpm for 10 min. in a 5 °C centrifuge to isolate plasma and the plasma stored at −20 °C before analysis. Whole brains were collected, dissected down the midline, snap frozen on dry ice, and stored at −80 °C before analysis. The levels of the compounds in both plasma and brain tissue were determined by a quantitative LC/MS/MS methodology at Integrated Analytical Solutions (IAS, Berkeley, CA). Plasma samples were precipitated with an acetonitrile: methanol (1:1) cocktail containing an internal standard. Brain samples were homogenized directly in ethyl acetate by the liquid-liquid method. The resulting supernatant was evaporated to dryness and subjected to LC/MS/MS analysis. The Tmax, Cmax, brain-to-plasma ratios and brain levels were then calculated using PK Solutions software (SummitPK).

Question: For `CC(N)C(=O)OC(C)(C)Cc1ccc(Cl)cc1` (stereo not drawn) [A03, alaproclate], which “Exploration time in NOR” value (E4FAD mice [1]) is on record?
Answer: Its value is “similar”.

Question: And the “SirT1 levels in ApoE4-transfected A172 cells” value [2]?
Answer: The value was “significantly increased SirT1 levels”.

Question: What about the “sAPPα levels in A172-E4 cells” value [3] of the same compound?
Answer: The value was “significant increase”.

Question: What about the Body weights (E4FAD mice [4]; 56-day oral study) of the same compound?
Answer: Its Body weights is “stayed the same”.

Question: What about the “Signs of toxicity by cage-side observation” value (E4FAD mice [4]; E4FAD mice, oral 56-day treatment) of the same compound?
Answer: Its value is “no signs of toxicity”.

Question: What about the “SirT1 mRNA” value (SirT1 mRNA) of the same compound?
Answer: Its value is “increase in SirT1 mRNA”.

Question: And the “Liver function in Phase 1 trial for depression” value (patients; human)?
Answer: The value was “some liver function changes were seen”.

Question: What about the “Toxicity in second clinical study” value (patients; human) of the same compound?
Answer: Its value is “no toxicity up to 200 mg BID”.

Question: And the “Global scores in moderate to advanced AD patients” value (patients; small clinical studies)?
Answer: The value was “some improvements in global scores”.

Question: And the “retention time (Tr) in PAMPA” value ([5]; IAM.PC.DD2 column, acetonitrile:PBS (pH 5.6) 35:65)?
Answer: The value was 3.31.

Question: And the KIAM ([5]; KIAM = (Tr-T0)/T0, T0 = 1.24 min)?
Answer: The KIAM was 1.67.

Question: What about the “(KIAM/MW^4) * 10^−(10)” value ([5]; MW 255.74 g/mol) of the same compound?
Answer: Its value is 3.90.

Question: What about the Tmax ([6]; mouse, brain, n = 1 per time point) of the same compound?
Answer: Its Tmax is 1 h.

Question: And the AUC ([6]; mouse, plasma, 1-8 hours)?
Answer: Its AUC is 266 ng·h/mL.

Question: And the AUC brain ([6]; 1-8 hours)?
Answer: Its AUC brain is 1336 ng·h/g.
